The record followed here is patent US4764505A, “Skin treatment composition” (Shiseido Company Ltd., priority 1985, dated 1988).

Read-outs that look alike come from different tables or passages of the source.

Data set [1] deals with skin. Particulars: guinea pig, in vivo.
The nature of data set [2]: Stability with time in 0.1N aqueous sodium hydroxide (absorbancy at 420 nm, FIG. 1). The following applies: 1 mM in 0.1N aqueous sodium hydroxide, 37° C. In kind it is physicochemical. The protocol: Also in FIG. 1, the changes of the absorbancy at 420 nm are shown with the lapse of time.
Hydroquinone, arbutin, or hydroquinone monocaprylate was dissolved at a concentration of 1 mM in a 0.1N aqueous sodium hydroxide solution. The changes in the color of the resultant solutions with the lapse of time at 37° C. were monitored by measuring the absorbancy at 420 nm.

Data set [3] has as its system tyrosinase. The protocol: The depigmenting effects of arbutin and hydroquinone were evaluated by using the inhibition rate of tyrosinase, i.e. polyphenol oxidase for forming melanin. This evaluation method is generally accepted in the art.
The tyrosinase inhibition rate was determined by using DOPA as a substrate as follows:
Preparation of Sample Solution
Aqueous sample solutions having a concentration of hydroquinone or arbutin of 150, 300, or 600 mM were prepared.
Preparation of Substrate Solution
A substrate solution was prepared by dissolving 5 mg of DOPA in 10 ml of distilled water.
Preparation of Enzyme Solution
An enzyme solution was prepared by dissolving 10 mg of tyrosinase (2000 I.U./mg, Sigma Chemical Co.) in 10 ml of distilled water.
A 0.5 ml amount of the substrate solution and 0.9 ml of 1/15M phosphate buffer solution were added to 0.05 ml of the sample. The mixture was incubated at 25° C. for 5 minutes. Then, 0.05 ml of the enzyme solution, which was previously incubated at 25° C. for 5 minutes, was added to the above-incubated sample mixture. The resultant mixture was allowed to react for 1.5 minutes. The absorbancy of the resultant reaction mixture was measured at 475 nm. The tyrosinase inhibition rate was calculated from the following equation: [formula] wherein T: Absorbancy in the case of the inhibitor being added;
T': Absorbancy in the case of the inhibitor being added but the substrate not being added
C: Absorbancy in the case of the inhibitor not being added
C': Absorbancy in the case of neither the inhibitor nor the substrate being added

The nature of data set [4]: Stability of neutral cream on storage at 37° C. (discoloration). In kind it is physicochemical. Particulars: for degree of discoloration: neutral cream of Example 8 (or arbutin replaced), 37° C. The protocol: These three samples were stored at a temperature of 37° C. for 1 month, 2 months, and 3 months.
The subject of data set [5] is skin. Particulars: guinea pig, in vivo. This is another data set of the same source.

Consider `OC[C@H]1O[C@@H](Oc2ccc(O)cc2)[C@H](O)[C@@H](O)[C@@H]1O` [Arbutin, hydroquinone-β-D-glucoside], for which, in data set [1], the “Results (incidence, animals responding/tested)” value is listed as 0/1; the “Results (score, erythema and edema criteria)” value is 0; the “contact sensitivity compared with other depigmenting agents” value is “remarkably low compared with that of other depigmenting agents”; the “order of the contact sensitization potential” value (shortened to “order”) is reported as “Hydroquinone monocaprylate>Hydroquinone>>Arbutin”. Also, the “change in color of the solution with lapse of time” value (“change in color of the solution” for short) in data set [2] is reported as “the change of appearance was not observed”. Further, in data set [3] (concentration 5 mM), the “Inhibition Rate (%)” value came out at 55.3%. The “Inhibition Rate (%)” value in data set [3] (concentration 10 mM) stood at 62.3%. For the same compound, the “Inhibition Rate (%)” value in data set [3] (concentration 20 mM) was 67.1%. For the same compound, the “inhibition effect compared with hydroquinone” value in data set [3] (tyrosinase, Table 1 conclusion in words) is “superior to that of hydroquinone”. In addition, in data set [4] (Table 4 conclusion), the “stability with the lapse of time (in words)” value is “excellent”. In addition, in data set [4] (1 month), the degree of discoloration entry is listed as “++”. In addition, the degree of discoloration entry in data set [4] (2 months) was “++”. For the same compound, the degree of discoloration entry in data set [4] (3 months) was “++”. Besides, in data set [5], the “irritation (in words)” value is recorded as “no irritation” and the “number of the guinea pigs causing the irritation” value is recorded as 0.
On to `CCCCCCCC(=O)Oc1ccc(O)cc1` [Hydroquinone monocaprylate, hydroquinone monocaprylate], for which, in data set [1], the “Results (incidence, animals responding/tested)” value was 5/5; the “Results (score, erythema and edema criteria)” value came to 3.4; the “order” value is recorded as “Hydroquinone monocaprylate>Hydroquinone>>Arbutin”. For the same compound, the “change in color of the solution” value in data set [2] is “the stability was improved moderate”. In addition, the degree of discoloration result in data set [4] (1 month) is reported as “+”. For the same compound, the degree of discoloration entry in data set [4] (2 months) is “+”. Besides, the degree of discoloration entry in data set [4] (3 months) was “-”. In data set [5], the “irritation (in words)” value is given as “strong irritation”.
As for `Oc1ccc(O)cc1` [Hydroquinone, hydroquinone], in data set [1], the “Results (incidence, animals responding/tested)” value is 5/5; the “Results (score, erythema and edema criteria)” value amounted to 2.6; the “order” value is “Hydroquinone monocaprylate>Hydroquinone>>Arbutin”. For the same compound, the “change in color of the solution” value in data set [2] was “rapidly colored brown”. The “Inhibition Rate (%)” value in data set [3] (concentration 5 mM) stood at 46.5%. The “Inhibition Rate (%)” value in data set [3] (concentration 10 mM) is on record as 51.6%. Moreover, the “Inhibition Rate (%)” value in data set [3] (concentration 20 mM) was 59.0%. The degree of discoloration entry in data set [4] (1 month) is on record as “-”.
